Test results reported in patent US11344588B2, “Lactobacillus plantarum CJLP17 having antiviral and immunomodulatory efficacies and composition comprising the same” (CJ CHEILJEDANG CORPORATION, priority 2018, dated 2022).

tested on: CJLP17 strain; test: Antibiotic susceptibility test with antibiotic discs; assay type: cell-based, Lactobacillus plantarum; conditions: antibiotic disc on CJLP17 lawn, Mueller Hinton II medium, 37° C., 24 hours
Procedure: The CJLP17 strain was inoculated into a liquid MRS medium and subjected to a static culture at 37° C. for 24 hours. The thus-cultured bacteria were soaked in sterilized cotton swabs and smeared on a solid Mueller Hinton II medium (Difco), and then antibiotic discs were placed on the medium and incubated at 37° C. for 24 hours. Ampicillin, clindamycin, gentamicin, kanamycin, erythromycin, ampicillin/sulbactam, chloramphenicol, and streptomycin discs (Oxoid, UK) were used as antibiotic discs for the antibiotic test.

Question: How did the “Radius of Growth Inhibition Area Centered Around Antibiotics” value turn out when `CC[C@H]1OC(=O)[C@H](C)[C@@H](O[C@H]2C[C@@](C)(OC)[C@@H](O)[C@H](C)O2)[C@H](C)[C@@H](O[C@@H]2O[C@H](C)C[C@H](N(C)C)[C@H]2O)[C@](C)(O)C[C@@H](C)C(=O)[C@H](C)[C@@H](O)[C@]1(C)O` [E15 (Erythromycin), Erythromycin] was run?
Answer: Its value is 12 mm.

Question: For `NC[C@H]1O[C@H](O[C@H]2[C@H](O)[C@@H](O[C@H]3O[C@H](CO)[C@@H](O)[C@H](N)[C@H]3O)[C@H](N)C[C@@H]2N)[C@H](O)[C@@H](O)[C@@H]1O` [K30 (Kanamycin), Kanamycin], which “Radius of Growth Inhibition Area Centered Around Antibiotics” value is on record?
Answer: The value was 1.5 mm.

Question: For `CCC[C@@H]1C[C@@H](C(=O)N[C@@H]([C@H]2O[C@H](SC)[C@H](O)[C@@H](O)[C@H]2O)[C@H](C)Cl)N(C)C1` [C30 (Clindamycin), Clindamycin], which “Radius of Growth Inhibition Area Centered Around Antibiotics” value is on record?
Answer: Its value is 7 mm.

Question: Which “Radius of Growth Inhibition Area Centered Around Antibiotics” value does the source give for “Ampicillin/Sulbactam [SAM20 (Ampicillin/Sulbactam)]” here?
Answer: The value was 7 mm.

Question: Gentamicin [CN120 (Gentamicin)] was tested. Which “Radius of Growth Inhibition Area Centered Around Antibiotics” value did it give?
Answer: The value was 5 mm.

Question: For `CC1(C)S[C@@H]2[C@H](NC(=O)[C@H](N)c3ccccc3)C(=O)N2[C@H]1C(=O)O` [Amp10 (Ampicillin), Ampicillin], which “Radius of Growth Inhibition Area Centered Around Antibiotics” value is on record?
Answer: Its value is 7.5 mm.

Question: How did the “Radius of Growth Inhibition Area Centered Around Antibiotics” value turn out when `[H]/N=C(/N)N[C@H]1[C@H](O)[C@@H](O)[C@H](O[C@@H]2O[C@@H](C)[C@](O)(C=O)[C@H]2O[C@@H]2O[C@@H](CO)[C@H](O)[C@@H](O)[C@@H]2NC)[C@@H](N/C(N)=N\[H])[C@@H]1O` [DA2 (Streptomycin), Streptomycin] was run?
Answer: Its value is 4.5 mm.

Question: Which “Radius of Growth Inhibition Area Centered Around Antibiotics” value does the source give for `O=C(N[C@H](CO)[C@H](O)c1ccc([N+](=O)[O-])cc1)C(Cl)Cl` [S10 (Chloramphenicol), Chloramphenicol] here?
Answer: Its value is 3.5 mm.
